Consider one molecule from patent US12329852B2, “Sustained-release 9-cis retinoic acid implantable drug delivery pellets for the prevention of postsurgical edema and lymphedema” (UNIVERSITY OF SOUTHERN CALIFORNIA, priority 2019, dated 2025).

In data set [1] the test system is hind limb lymphedema. The data set can be described thus: Hind limb lymphedema model, paw thickness (implantable pellet). Type of data set: in vivo, mouse. The conditions noted are these: for paw swelling, mean difference compared to control animals: implantable pellet 100 μg 9-cis RA, 30-day release. As to the method: All experiments were performed in accordance with the statutes from The Guide for the Care and Use of Laboratory Animals (National Research Council, 8th ed, 2011), the Animal Welfare Act, and other Federal regulations. The was approved by the University of Southern California Institutional Animal Care and Use Committee. Male and female Prox-1 green fluorescent protein (GFP) transgenic mice, 12-16 weeks old, weighing 20-30 g were bred within the University of Southern California animal facility. This GFP-expressing lymphatic reporter mouse was used because it conveniently allowed for the visualization of lymphatic vessels and other Prox1-expressing tissue under fluorescence microscopy, and facilitated the immunohistochemical staining of lymphatic vessels using anti-GFP primary antibody.
Under isoflurane-inhaled anesthesia, the lymphatic injury protocol was used on all experimental mice to induce hind limb lymphedema. This consisted of hind limb lymph node dissection followed by adjuvant radiation therapy. Using a dissecting microscope, a circumferential intradermal incision was made around the thigh, after which the ipsilateral inguinal fat pad, containing the inguinal lymph nodes, and ipsilateral popliteal lymph node were removed, as previously described. Visualization of the inguinal and popliteal lymphatics was facilitated by the injection of methylene blue dye on the dorsum of the paw and by the use of a green fluorescent microscope. Skin sutures were placed in 7-8 mm gaps to reinforce discontinuity of dermal lymphatics. The surgical area was then irradiated using a clinically relevant dose of 27.5 Gy radiation delivered by an XRad 320 device over a period of 5 days (550 cGy per day), which is the human equivalent dose for mouse.
Pellets were placed within the surgical wound intraoperatively and sutured in place to the adductor muscles of the thigh. Treatment pellets were custom-manufactured by Innovative Research of America (Sarasota, FL) to contain 100 μg of 9-cis RA, released over a period of 30 days using a matrix-driven delivery system. The carrier-binder excipients of the pellet matrix were synthetic and non-toxic, and included cholesterol, lactose, celluloses, phosphates, and stearates.
Prior to surgery, all animals were sex-, age-, and weight-matched to eliminate confounding variables. Paw thickness, the primary outcome, was measured weekly using electronic calipers for a total of 6 weeks. Paw thickness was normalized for each animal by calculating percent change relative to the unaffected paw. Hind limbs were photographed using a Nikon D5000 digital SLR flash camera using fixed distances, focal length, background, and positioning.

Data set [2] relates to hind limb lymphedema. The data set can be described thus: ICG lymphography of hind limb, lymphatic clearance (implantable pellet). The format is in vivo, mouse. The note with it: postoperative week 6, 3 to 144 hours after ICG injection. As to the method:
At postoperative week 6, lymphatic clearance was measured using indocyanine green (ICG) lymphography to compare lymphatic function between the treatment and placebo groups. After inducing anesthesia via isoflurane inhalation, a sub-microliter injection system syringe was used to intradermally inject 2 uL of ICG on the dorsal aspect of the second and fifth paw digits. ICG lymphography images were recorded at 1, 3, 6, 12, 24, 48, 72, 96, and 144 hours post-injection. The fluorescence intensity of the lymphography images was quantified at each post-injection time point using ImageJ pixel intensity analysis (National Institutes of Health, Bethesda, MD).
Indocyanine green (ICG) lymphography is a well-established procedure used in clinics by healthcare providers to visualize lymphatic vessels in real-time for the purposes of diagnosis or preoperative planning. When ICG is injected intradermally, it is preferentially picked up and cleared by the lymphatic system. This imaging modality provides rapid visualization of lymphatic vessels and measures lymphatic clearance, acting as a surrogate for lymphatic function. […] Thus, at postoperative week 6 and prior to euthanasia, lymphatic clearance were monitored by quantifying the change in dermal fluorescence of mouse hind limbs injected with ICG.

Data set [3] deals with tail lymphedema. Nature of the data set: Lymphatic vessel density, podoplanin immunohistochemistry of tail. Type of data set: in vivo, BALB/c mice. The conditions noted are these: 0.08 mg/kg daily i.p. As to the method:
Tail specimens were collected on post-operative day 47. Specimens were harvested to include 1 cm proximal and 1 cm distal the wound, then divided to separate proximal and distal portions. Tails were inked to enable proper orientation, fixed in 10% neutral buffered formalin overnight, decalcified in 10% EDTA (pH: 7.3) for 6 days at 4° C., embedded in paraffin, sectioned at 3-5 μm, then stained with hematoxylin and eosin (H&E) or via immunohistochemical techniques. In summary, sections were deparaffinized, underwent antigen retrieval with sodium citrate buffer, incubated overnight with the primary antibody (1:200) at 4° C., washed, incubated with a suitable secondary antibody (1:200), then stained with immPACT DAB Substrate (Vector Laboratories, Inc, Burlingame, CA) and counterstained with Delafield Hematoxylin (Sigma-Aldrich, USA) diluted 1:4. Podoplanin (clone 8.1.1; sc-53533, Santa Cruz Biotechnology, Inc., Dallas, TX) was used to immunohistochemically mark lymphatics in paraffin embedded tail sections.
Slides were counterstained with hematoxylin and mounted. All images were obtained with a Keyence BZ-X700 microscope (Itasca, IL) and epidermal and dermal thickness was measured using ImageJ (National Institutes of Health, Betheseda, MD). The thickest part of the epidermis and dermis was measured in 5 high-power fields per section, as previously described. On the immunohistochemically stained slides, podoplanin stained vessels in the dermis and subcutis were quantified in ImageJ. Two high-power fields per section were randomly selected and then analyzed by a blinded reviewer. The reviewer scored the number of podoplanin stained vessels and the area (mm^2) of the dermis and subcutaneous tissue in each image. […]

For a further data set, the system named is diaphragmatic lymphatics. Nature of the data set: India ink staining of the diaphragm. Type of data set: in vivo, BALB/c mice. The conditions noted are these: 0.08 mg/kg daily i.p. As to the method: On post-operative day 47, each animal was intraperitoneally injected with 5 cc of India Ink which was diluted 2-folds with distilled water. Ten minutes after the injection of India ink, the animal was euthanized and the diaphragms were harvested in their entirety. The specimens were then rinsed with running tap water for 1 minute and mounted on the stage of a dissecting microscope equipped with a digital camera. The whole-mount specimen, exclusive of the central tendon, was then analyzed for the passive lymphatic absorption of India ink utilizing the percent stained area on ImageJ.

In data set [4] the test system is tail lymphedema. The data set can be described thus: Oral administration, tail lymphedema, lymphatic clearance. Type of data set: in vivo, BALB/c mice. The note with it: oral gavage for 6 weeks.
Description: (§1) Oral administration experiments were performed on 30 adult BALB/c mice, 12 to 14 weeks old, and weighing between 21 and 30 g. Surgical excision of lymphatic vessels at 20-mm from the base of the tail was performed in order to induce secondary lymphedema. Mice receive 9-cis RA dissolved in sunflower oil via oral gavage for 6 weeks in accordance to the dosing regimes in Table 3.
The conditions of data set [5]: mouse, in vivo, po.
Description: as §1
Data set [6] concerns lymphatic endothelial cell. The conditions noted are these: in vitro; earlier work [12,13]; cited from earlier work.

The structures appear in SMILES notation. “Also recorded” adds a separate entry of the source. Read-outs that look alike come from different tables or passages of the source.

Regarding `CC1=C(/C=C/C(C)=C\C=C\C(C)=C\C(=O)O)C(C)(C)CCC1` [9-cis RA, 9-cis retinoic acid], the “paw swelling, mean difference compared to control animals” value with hind limb lymphedema [1] (postoperative week 3) was determined as 7%; in the data set on hind limb lymphedema [1] (postoperative week 4) it was 12%; in the data set with hind limb lymphedema [1] (postoperative week 5) it was 9%; in the data set on hind limb lymphedema [1] (postoperative week 6), 11%. The “change in paw swelling/thickness within the treatment group over time” value with hind limb lymphedema [1] (implantable pellet, between time points over 6 weeks) is on record as “no significant differences in paw swelling are observed between time points”. Further, in the data set on hind limb lymphedema [2], the “lymphatic drainage as change in ICG fluorescence compared to control” value is reported as “significantly faster lymphatic drainage”. Besides, the “lymphatic vessel density compared to control” value in the data set with tail lymphedema [3] (7-day delay group) was “strong trend towards improvement but not statistical significance”; with tail lymphedema [3] (14-day group), “trend towards increased lymphatic density that did not reach statistical significance; also recorded: trending towards significance”; in the data set with tail lymphedema [3] (42-day/45-day group, tails distal to wound, day 47) it was “significantly increased compared to the controls; also recorded: statistically significant difference”. Also, the “percent stained area of diaphragms (India ink) vs vehicle control” value in the data set on diaphragmatic lymphatics (14-day group) was “marginal significance”; in the data set with diaphragmatic lymphatics (groups other than 14-day), “essentially no differences”. Besides, the lymphatic clearance entry with tail lymphedema [4] (high dose 30 mg/kg) and in the data set on tail lymphedema [4] (low dose 10 mg/kg) was “improves lymphatic clearance” throughout. Also, the “systemic toxicity by liver and kidney function tests (AST, ALT, BUN)” value in data set [5] (10 mg/kg) and in data set [5] (30 mg/kg) was “minimal systemic toxicity” in each case. Besides, in data set [6], the “lymphatic endothelial cell proliferation, migration and vessel formation” value is on record as “significantly increased”.
